# Read-outs that look alike come from different tables or passages of the source.
# Experiments:
# [1] = tested on: Leishmania mexicana mexicana promastigotes; experiment: Antileishmanial activity in vitro; format: cell-based; settings: for IC50: Leishmania mexicana
# Description: (§1) The crude extract and the newly identified pure compound (91.9%), campestrolide, were evaluated in vitro for their cytotoxicity on two mammalian cell lines: normal human fibroblasts (WI38) and cancerous macrophage-like murine cells. Their antiprotozoal activities were also investigated on Trypanosoma brucei brucei (Tbb. strain 427) bloodstream forms and Leishmania mexicana mexicana (Lmm. MHOM/BZ/84/BEL46) promastigotes. The tests were performed using stock solutions prepared in DMSO at 10 mg/mL. For the cytotoxicity assay, the samples were tested in eight serial 1.7-fold dilutions (150 µL transferred into 100 µL fresh medium) in the 96-well microtiter plates (concentration range: 0.7–25 µg/mL). The camptothecin (Sigma-Aldrich, St.-Louis, MO, USA) was used as a positive control with 5-fold dilutions (concentration range: 0.00032–25 µg/mL) from a 10 mg/mL DMSO stock solution. For the antiparasitic assays, the samples were tested in eight serial 2-fold dilutions (concentration range: 0.20–25 or 0.10–12 µg/mL on Leishmania and Trypanosoma, respectively). Suramine sodium and pentamidine isethionate salts (Sigma-Aldrich, St.-Louis, MO, USA) were used as a positive control with 3-fold dilutions (0.0046–10 µg/mL) from a stock solution of 2 mg/mL as well as amphotericin B. A maximum of 0.5% DMSO was previously verified to be non-toxic in all the biological assays. The IC50 values were determined using Microsoft Excel and GraphPad Prism 7.0 software (GraphPad, San Diego, CA, USA), based on a nonlinear regression. The selectivity index was calculated in comparison to the WI38 cytotoxicity to assess the therapeutic properties as antiparasitic or anticancer hits.
# T. cruzi trypomastigotes = tested on: T. cruzi trypomastigotes; set-up: method as in PMID 22414103; settings: at 100 µg/mL; cited from earlier work
# cruzain = tested on: cruzain; set-up: method as in PMID 22414103; settings: cited from earlier work
# [2] = Cytotoxicity / anticancer activity on J774 cells; format: cell-based; settings: mouse, J774 cancerous macrophage-like murine cells, mean ± SD from at least six values
# Description: as §1
# [3] = Cytotoxicity on WI38 cells; format: cell-based; settings: human, WI38 normal human fibroblasts, mean ± SD from at least six values
# Description: as §1
# [4] = tested on: Trypanosoma brucei brucei (bloodstream forms); experiment: Antitrypanosomal activity in vitro; format: cell-based
# Description: as §1
# all tested cells = experiment: Summary over cytotoxicity and antiprotozoal assays; format: cell-based; settings: read-out: IC50 on all tested cells except Trypanosoma
# Description: as §1, with “Suramine sodium and pentamidine isethionate salts (Sigma-Aldrich, St.-Louis, MO, USA) were used as a positive control with 3-fold dilutions (0.0046–10 µg/mL) from a stock solution of 2 mg/mL as well as amphotericin B. A maximum of 0.5% DMSO was previously verified to be non-toxic in all the biological assays.” left out
# [5] = tested on: Trypanosoma brucei rhodesiense, T. cruzi, Plasmodium falciparum and Leishmania donovani axenic and the infected macrophages amastigotes; set-up: method as in PMID 17922552; settings: cited from earlier work; for IC50: T. b. rhodesiense, T. cruzi, P. falciparum, L. donovani axenic and infected-macrophage amastigotes, read-out: IC50 on protozoan panel
# [6] = set-up: method as in earlier work; settings: cited from earlier work
# [7] = tested on: Trypanosoma brucei brucei; set-up: method as in PMID 22473703; settings: cited from earlier work
# [8] = read-out: Cytotoxicity IC50 ± SD J774
# [9] = read-out: Cytotoxicity IC50 ± SD J774 (µM for pure compound)
# [10] = read-out: Cytotoxicity IC50 ± SD WI38
# [11] = read-out: Cytotoxicity IC50 ± SD WI38 (µM for pure compound)
# [12] = Lmm promastigotes, read-out: Antiparasitic activity IC50 ± SD Lmm
# [13] = Lmm promastigotes, read-out: Antiparasitic activity IC50 ± SD Lmm (µM for pure compound)
# [14] = Trypanosoma brucei, Tbb bloodstream forms, strain 427, read-out: Antiparasitic activity IC50 ± SD Tbb
# [15] = Trypanosoma brucei, Tbb bloodstream forms, strain 427, read-out: Antiparasitic activity IC50 ± SD Tbb (µM for pure compound)
compound,measurement,setting,value
"C[C@@H]1[C@H](O)[C@@H](C)/C=C/C=C/C=C/C=C/C=C/C=C/C=C/[C@H](O[C@@H]2O[C@H](C)[C@@H](O)[C@H](N)[C@@H]2O)C[C@@H]2O[C@](O)(C[C@@H](O)C[C@@H](O)[C@H](O)CC[C@@H](O)C[C@@H](O)CC(=O)O[C@H]1C)C[C@H](O)[C@H]2C(=O)O [amphotericin B, reference compound]",IC50,[1]; read-out: Antiparasitic activity IC50 ± SD Lmm (µM for pure compound),0.09 ± 0.06 µM
"C=C1/C=C/[C@H](C(C)C)CC/C(C)=C/CC1 [germacrene D, Germacrene D]",growth inhibition of T. cruzi trypomastigotes,T. cruzi trypomastigotes,61%
same,IC50 cruzain,cruzain,22.1 µg/mL
"CC[C@@]1(O)C(=O)OCc2c1cc1n(c2=O)Cc2cc3ccccc3nc2-1 [camptothecin, reference compound]",IC50,[2]; [8],0.007 ± 0.005 µg/mL
same,IC50,[2]; [9],0.021 µM
same,IC50,[3]; [10],0.036 ± 0.022 µg/mL
same,IC50,[3]; [11],0.103 µM
"C=C[C@@H]1C#CC#CC/C=C\CCCCCCCC(=O)O1 [Compound 33, (Z)-17(R)-vinyloxacycloheptadeca-10-en-13,15-diyn-2-one]",IC50,[2]; [8],4.84 ± 0.1 µg/mL
same,IC50,[2]; [9],17.9 µM
same,IC50,[1]; [12],3.43 ± 0.02 µg/mL
same,IC50,[1]; [13],12.7 µM
same,"Selectivity Index IC50 WI38/IC50 Parasite, Lmm",[1]; compared to WI38 cytotoxicity,1.5
same,Antiparasitic activity IC50 ± SD Tbb,"[4]; Tbb bloodstream forms, strain 427",0.59 ± 0.08 µg/mL
same,IC50,"[4]; Tbb bloodstream forms, strain 427, read-out: Antiparasitic activity IC50 ± SD Tbb (µM for pure compound)",2.17 µM
same,IC50,[4]; [14],0.6 µg/mL
same,IC50,[4]; [15],2.2 µM
same,"Selectivity Index IC50 WI38/IC50 Parasite, Tbb",[4]; compared to WI38 cytotoxicity,8.9
same,IC50,all tested cells,12500 to 19500 nM
same,IC50,[3]; [10],5.2 ± 0.24 µg/mL
same,IC50,[3]; [11],19.2 µM
"Cc1ccc(C(=O)Nc2ccc(S(=O)(=O)O)c3cc(S(=O)(=O)O)cc(S(=O)(=O)O)c23)cc1NC(=O)c1cccc(NC(=O)Nc2cccc(C(=O)Nc3cc(C(=O)Nc4ccc(S(=O)(=O)O)c5cc(S(=O)(=O)O)cc(S(=O)(=O)O)c45)ccc3C)c2)c1 [suramine, reference compound]",IC50,[4]; [14],0.031 ± 0.012 µg/mL
same,IC50,[4]; [15],0.022 µM
"N=C(N)c1ccc(OCCCCCOc2ccc(C(=N)N)cc2)cc1 [pentamidine, reference compound]",IC50,[1]; [12],0.057 ± 0.008 µg/mL
same,IC50,[1]; [13],0.097 µM
"C=CC(C#CC#CC(O)CCCCCCCCCCOC(C)=O)OC(C)=O (centres unmarked) [16-acetoxy-11-hydroxyoctadeca-17-ene-12,14-diynyl ethanoate]",IC50,[5],100 to 2500 nM
same,SI compared on L6 rat skeletal myoblasts,[5],> 10
"C=CC(C#CC#CC(O)CCCCCCCCC)OC(C)=O (centres unmarked) [8-hydroxyheptadeca-1-ene-4,6-diyn-3-yl ethanoate]",IC50,[5],100 to 2500 nM
same,SI compared on L6 rat skeletal myoblasts,[5],> 10
C=C[C@H](O)C#CC#CC/C=C\CCCCCCC [Falcarinol],reported log P,[6],5.50
same,SI compared to HeLa cytotoxicity,[7]; T. b. brucei compared to HeLa,858
same,IC50,[7],40 nM
same,IC50 on Trypanosoma brucei brucei,[7],0.01 µg/mL
